Article PMC2951365, “Structural Transformation of the Tandem Ubiquitin-Interacting Motifs in Ataxin-3 and Their Cooperative Interactions with Ubiquitin Chains” (PLoS ONE, 2010)
pKd: −log10 of the molar value. Where two headings read alike, the source gives them in different places.

Tests used:
Ub [1] = molecular target: T1, Ub (Homo sapiens, UniProt P0CG48); details: cited from earlier work
T1 construct: gene UBC; 15N-labeled Ub; cDNA encoding Ub cloned into pET-3a, expressed in E. coli
From the text: (§1) There are about 20∼50 residues inserted in between two UIMs of S5a and Vps27, but the linker region between the two UIMs of AT3 is very short. These adjoining UIM motifs in AT3 raise a possible cooperativity for binding with Ub. Our structure determination and titration experiments reveal that the individual UIMs of AT3 can bind Ub respectively but with lower affinities. […] It seems that the cooperative interaction of AT3-UIM12 with diUb or polyUb is more remarkable than that with monoUb (Supplemental Fig. S7). […] Therefore, the altered affinities of AT3-UIM12 for monoUb or diUb may result from structural transformation of the linker region. The backbone dynamics provides further evidence for the conformational change in the linker region, which possibly allows cooperative interaction with Ub.

Ub [2] = details: cited from earlier work
From the text: as §1

Ub [3] = molecular target: T1, Ub; details: read-out: K D,app
Protocol: ^15N-Ub at a molar concentration of ∼0.2 mM was titrated with increasing amount of UIM peptides or its mutants. A series of ^1H-^15N HSQC spectra of Ub were obtained and the chemical shift changes were measured for each molar ratio. […] The combined average chemical shift changes (Δδave) were calculated as Δδave = [(0.2*ΔδN)^ 2 + (ΔδHN)^ 2]^1/2, where ΔδHN and ΔδN are the chemical shift changes in the ^1H and ^15N dimensions, respectively. […] The dissociation constant (K D) for the UIM-Ub binding was obtained by fitting the titration curves [61].
^15N- or ^15N/^13C-labeled samples (∼1 mM) were dissolved in a PBS buffer (20 mM phosphate, 100 mM NaCl, pH 6.5) containing 8% or 100% D2O and 0.02% (w/v) NaN3. […] All the NMR experiments were performed at 25°C on a Varian UNITY INOVA 600 MHz spectrometer equipped with three RF channels and a triple-resonance pulsed-field gradient probe.

| Substance | pKd (Ub [1]) | pKd (Ub [2]) | also measured |
| --- | --- | --- | --- |
| S5a UIM1 (210–230 in alignment); construct not told | ~3.46 |  |  |
| S5a UIM2 (281–301 in alignment); construct not told | 4.14 |  |  |
| Vps27p UIM1 (257–277 in alignment); construct not told |  | 3.56 |  |
| Vps27p UIM2 (300–320 in alignment); construct not told |  | 3.93 |  |
| ataxin-3 residues 335–354; GB1 fusion [AT3-UIM3] |  |  | pKd (Ub [3]): < 2.52 |
